Measured values: publication PMC6950716, “Bioactive Secondary Metabolites from the Culture of the Mangrove-Derived Fungus Daldinia eschscholtzii HJ004” (Marine Drugs, 2019)
Values after ≈ are worked out from the molar mass of the structure shown.

Target: α-glucosidase
Assay: α-glucosidase inhibition assay in 96-well plates (modified Sawada et al.)
Assay type: biochemical

COC1=CC(=O)c2c(cc3c(c2O)COC3)C1=O [compound 4, 5-hydroxy-2-methoxynaphtho[9–c]furan-1,4-dione]
IC50: 5.7 µg/mL (≈ 23.2 µM)

COc1cccc2cc(C(C)=O)oc12 [compound 7, 2-acetyl-7-methoxybenzofuran]
IC50: 1.1 µg/mL (≈ 5.78 µM)
